In ChEMBL document CHEMBL3997802, “Design, Synthesis, and Evaluation of Isaindigotone Derivatives To Downregulate c-myc Transcription via Disrupting the Interaction of NM23-H2 with G-Quadruplex” (J Med Chem, 2017):
Active and inactive are the calls of the source. The calls are words filed in the database; no cut-off is given here.

What was measured:
[1] = (§1) Inhibition of 5'-biotin-labeled c-Myc Pu18 G-quadruplex DNA (unknown origin) interaction with His-tagged NM23-H2 at 20 uM preincubated with NM23-H2 for 1 hr followed by addition of DNA measured after overnight incubation by ELISA
[2] = as §1, with “His-tagged NM23-H2 assessed as ratio of Kd for NM23-H2-DNA complex in presence of compound to Kd for […]-DNA complex in absence of compound at 20” for “His-tagged NM23-H2 at 20”
[3] = target: T1, Nucleoside diphosphate kinase B (Homo sapiens, UniProt P22392); experiment: Binding affinity to NT647-labeled His-tagged NM23-H2 (unknown origin) expressed in Escherichia coli BL21(DE3) up to 500 uM after 30 mins by microscale thermophoresis method
[4] = Inhibition of thiazole orange binding to c-Myc Pu27 G-quadruplex DNA (unknown origin) at 10 uM after 30 secs by fluorescence spectrophotometric method
[5] = Inhibition of thiazole orange binding to c-Myc Pu18 G-quadruplex DNA (unknown origin) at 10 uM after 30 secs by fluorescence spectrophotometric method
Homo sapiens [6] = species: Homo sapiens; experiment: Inhibition of NM23-H2 binding to c-Myc promoter DNA in human SiHa cell nuclear extract at 1.3 to 2.6 uM after 4 days by ChIP analysis
[7] = target: T1, Nucleoside diphosphate kinase B; experiment: Binding affinity to NT647-labeled His-tagged NM23-H2 (unknown origin) expressed in Escherichia coli BL21(DE3) after 30 mins by microscale thermophoresis method
Homo sapiens [8] = species: Homo sapiens; experiment: Inhibition of NM23-H2 binding to c-Myc promoter DNA in human SiHa cell nuclear extract at 4.85 to 9.7 uM after 4 days by ChIP analysis
[9] = Stabilization of 5'-FAM/3'-TAMRA labeled c-Myc Pu18 G-quadruplex DNA (unknown origin) assessed as change in melting temperature at 1 uM after overnight incubation by FRET assay

T1 sequence (P22392 whole entry): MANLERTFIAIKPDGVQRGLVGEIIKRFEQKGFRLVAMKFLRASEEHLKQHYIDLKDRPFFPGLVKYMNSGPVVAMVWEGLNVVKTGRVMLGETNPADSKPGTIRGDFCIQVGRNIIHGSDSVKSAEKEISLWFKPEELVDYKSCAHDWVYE

Structure (SMILES)	inhibition [1]	Ratio [2]	other results
CN1CCN(c2cc3nc4n(c(=O)c3cc2F)CC/C4=C\c2ccc(C(=O)NCCCN3CCCCC3)cc2)CC1	Active	–	–
CCN(CC)CCNC(=O)c1ccc(/C=C2\CCCn3c2nc2cc(N4CCN(C)CC4)c(F)cc2c3=O)cc1	Active	–	–
CN1CCN(c2cc3nc4n(c(=O)c3cc2F)CC/C4=C\c2ccc(C(=O)NCCN3CCCCC3)cc2)CC1	–	1.4 to 4.3	–
CN1CCN(c2cc3nc4n(c(=O)c3cc2F)CC/C4=C\c2ccc(NC(=O)CN3CCN(CCO)CC3)cc2)CC1	Active	–	Activity [3]: Active
CCN(CC)CCCNC(=O)c1ccc(/C=C2\CCn3c2nc2cc(NCCCN4CCCC4)c(F)cc2c3=O)cc1	Active	–	inhibition [4]: Active; inhibition [5]: Active
CN1CCN(c2cc3nc4n(c(=O)c3cc2F)CCC/C4=C\c2ccc(NC(=O)CN3CCN(CCO)CC3)cc2)CC1	–	< 1.4	Activity [3]: Active
O=C(CCN1CCCC1)Nc1ccc(/C=C2\CCn3c2nc2cc(N4CCCCC4)c(F)cc2c3=O)cc1	–	1.4 to 4.3	inhibition (Homo sapiens [6]): inactive
CN1CCN(c2cc3nc4n(c(=O)c3cc2F)CC/C4=C\c2ccc(NC(=O)CCN3CCCCC3)cc2)CC1	Active	–	–
O=C(NCCN1CCCC1)c1ccc(/C=C2\CCn3c2nc2cc(NCCCN4CCCC4)c(F)cc2c3=O)cc1	Active	–	inhibition [4]: Active; inhibition [5]: Active
CN(C)CCCNC(=O)c1ccc(/C=C2\CCn3c2nc2cc(N4CCN(C)CC4)c(F)cc2c3=O)cc1	Active	–	–
CN1CCN(c2cc3nc4n(c(=O)c3cc2F)CC/C4=C\c2ccc(NC(=O)CCN3CCN(CCO)CC3)cc2)CC1	Active	–	Kd [7]: 1.8 µM; inhibition (Homo sapiens [8]): inactive
CCN(CC)CCCNC(=O)c1ccc(/C=C2\CCn3c2nc2cc(N4CCN(C)CC4)c(F)cc2c3=O)cc1	Active	–	–
CN1CCN(c2cc3nc4n(c(=O)c3cc2F)CC/C4=C\c2ccc(C(=O)NCCCN3CCCC3)cc2)CC1	Active	–	–
O=C(NCCN1CCCC1)c1ccc(/C=C2\CCn3c2nc2cc(NCCN4CCCC4)c(F)cc2c3=O)cc1	Active	–	inhibition [4]: Active; inhibition [5]: Active
O=C(CCN1CCCCC1)Nc1ccc(/C=C2\CCn3c2nc2cc(N4CCCCC4)c(F)cc2c3=O)cc1	–	1.4 to 4.3	–
O=C(NCCCN1CCCC1)c1ccc(/C=C2\CCn3c2nc2cc(NCCCN4CCCC4)c(F)cc2c3=O)cc1	Active	–	inhibition [4]: Active; inhibition [5]: Active
CCN(CC)CCC(=O)Nc1ccc(/C=C2\CCCn3c2nc2cc(N4CCN(C)CC4)c(F)cc2c3=O)cc1	Active	–	–

Structure (SMILES)	inhibition [1]	Ratio [2]	other results
CN1CCN(c2cc3nc4n(c(=O)c3cc2F)CC/C4=C\c2ccc(NC(=O)CCN3CCCC3)cc2)CC1	Active	1.6	–
CN1CCN(c2cc3nc4n(c(=O)c3cc2F)CCC/C4=C\c2ccc(C(=O)NCCN3CCCC3)cc2)CC1	Active	–	–
CCN(CC)CCNC(=O)c1ccc(/C=C2\CCn3c2nc2cc(NCCN4CCCC4)c(F)cc2c3=O)cc1	Active	–	inhibition [4]: Active; inhibition [5]: Active
CN1CCN(c2cc3nc4n(c(=O)c3cc2F)CC/C4=C\c2ccc(C(=O)NCCN3CCCC3)cc2)CC1	Active	–	–
CN1CCN(c2cc3nc4n(c(=O)c3cc2F)CCC/C4=C\c2ccc(NC(=O)CCN3CCCC3)cc2)CC1	–	1.3	–
CCN(CC)CCC(=O)Nc1ccc(/C=C2\CCn3c2nc2cc(N4CCN(C)CC4)c(F)cc2c3=O)cc1	–	1.4	–
CN1CCN(c2cc3nc4n(c(=O)c3cc2F)CCC/C4=C\c2ccc(NC(=O)CCN3CCN(CCO)CC3)cc2)CC1	–	–	Activity [3]: Active
O=C(CCN1CCCC1)Nc1ccc(/C=C2\CCn3c2nc2cc(NC(=O)CCN4CCCC4)ccc2c3=O)cc1	–	2.5	Activity [3]: inactive; ΔTm [9]: 8.5 °C
CCN(CC)CCNC(=O)c1ccc(/C=C2\CCn3c2nc2cc(N4CCN(C)CC4)c(F)cc2c3=O)cc1	–	2.7	–
O=C(CCN1CCCC1)Nc1ccc(/C=C2\CCCn3c2nc2cc(NC(=O)CCN4CCCC4)ccc2c3=O)cc1	–	2.4	ΔTm [9]: 3.4 °C; Kd [7]: 22.1 µM
CCN(CC)CCC(=O)Nc1ccc(/C=C2\CCn3c2nc2cc(N4CCCCC4)c(F)cc2c3=O)cc1	–	1.4 to 4.3	–
CN(C)CCNC(=O)c1ccc(/C=C2\CCn3c2nc2cc(N4CCN(C)CC4)c(F)cc2c3=O)cc1	Active	–	Activity [3]: Active
CN1CCN(c2cc3nc4n(c(=O)c3cc2F)CCC/C4=C\c2ccc(C(=O)NCCN3CCCCC3)cc2)CC1	Active	–	–
CN1CCN(c2cc3nc4n(c(=O)c3cc2F)CCC/C4=C\c2ccc(NC(=O)CCN3CCCCC3)cc2)CC1	Active	–	–
CCN(CC)CCCNC(=O)c1ccc(/C=C2\CCn3c2nc2cc(NCCN4CCCC4)c(F)cc2c3=O)cc1	Active	–	inhibition [4]: Active; inhibition [5]: Active
CN1CCN(c2cc3nc4n(c(=O)c3cc2F)CC/C4=C\c2ccc(NC(=O)CN3CCCC3)cc2)CC1	–	–	Activity [3]: Active
